Laboratory results: the supplement of paper PMC10307832

Experiments:
Experiment in all cases: relative viability (nuclei count vs DMSO), 5 days (fraction); higher = more cells survive
[1] = compound: C[C@H]([C@@H](C(=O)N)NC(=O)[C@@H]1CSSC[C@@H](C(=O)N[C@H](C(=O)N[C@@H](C(=O)N[C@H](C(=O)N1)CCCCN)CC2=CNC3=CC=CC=C32)CC4=CC=C(C=C4)O)NC(=O)[C@@H](CC5=CC=CC=C5)N)O [CAP-232]
Method in brief: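 Viability is treated-well nuclei as a fraction of vehicle-well nuclei, reported as the median across plates. Before counting, lung cancer cell lines were kept overnight at 37 °C in 1536-well plates, pinned with five √10-spaced library-drug doses on vehicle-anchored plates, and left 5 days without medium change, then fixed, permeabilised and Hoechst-stained in one step, imaged at 4× and counted by MetaXpress. A plate passed only if control CV was below 25% and at least one doubling occurred.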

[2] = compound: C[C@H]([C@@H](C(=O)N)NC(=O)[C@@H]1CSSC[C@@H](C(=O)N[C@H](C(=O)N[C@@H](C(=O)N[C@H](C(=O)N1)CCCCN)CC2=CNC3=CC=CC=C32)CC4=CC=C(C=C4)O)NC(=O)[C@@H](CC5=CC=CC=C5)N)O [CAP-232] + CC(=O)Nc1cccc(-n2c(=O)n(C3CC3)c(=O)c3c(Nc4ccc(I)cc4F)n(C)c(=O)c(C)c32)c1 [Trametinib] (partner 0.02 µM)
Method in brief: (§1)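 Lung cancer cell lines were pin-tool dosed in 1536-well plates on the day after seeding, with either a lone drug or a fixed anchor-drug dose plus five library-drug doses (not always all listed) in √10 steps. Nuclei were counted on 4× images after 5 days. Relative viability is the ratio of treated-well to vehicle-well nuclei counts, with each value a median of duplicate plates.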

[3] = compound: C[C@H]([C@@H](C(=O)N)NC(=O)[C@@H]1CSSC[C@@H](C(=O)N[C@H](C(=O)N[C@@H](C(=O)N[C@H](C(=O)N1)CCCCN)CC2=CNC3=CC=CC=C32)CC4=CC=C(C=C4)O)NC(=O)[C@@H](CC5=CC=CC=C5)N)O [CAP-232] + CC(=O)c1c(C)c2cnc(Nc3ccc(N4CCNCC4)cn3)nc2n(C2CCCC2)c1=O [Palbociclib] (partner 0.5 µM)
Method in brief: as §1

[4] = compound: C[C@H]([C@@H](C(=O)N)NC(=O)[C@@H]1CSSC[C@@H](C(=O)N[C@H](C(=O)N[C@@H](C(=O)N[C@H](C(=O)N1)CCCCN)CC2=CNC3=CC=CC=C32)CC4=CC=C(C=C4)O)NC(=O)[C@@H](CC5=CC=CC=C5)N)O [CAP-232] + COc1cccc2cc(-c3nc([C@H]4CC[C@H](C(=O)O)CC4)n4ncnc(N)c34)[nH]c12 [OSI-027] (partner 0.5 µM)
Method in brief: as §1

[5] = compound: C[C@H]([C@@H](C(=O)N)NC(=O)[C@@H]1CSSC[C@@H](C(=O)N[C@H](C(=O)N[C@@H](C(=O)N[C@H](C(=O)N1)CCCCN)CC2=CNC3=CC=CC=C32)CC4=CC=C(C=C4)O)NC(=O)[C@@H](CC5=CC=CC=C5)N)O [CAP-232] + Cc1cc(Nc2cc(N3CCN(C)CC3)nc(Sc3ccc(NC(=O)C4CC4)cc3)n2)n[nH]1 [Tozasertib] (partner 0.1 µM)
Method in brief: as §1

[6] = compound: C[C@H]([C@@H](C(=O)N)NC(=O)[C@@H]1CSSC[C@@H](C(=O)N[C@H](C(=O)N[C@@H](C(=O)N[C@H](C(=O)N1)CCCCN)CC2=CNC3=CC=CC=C32)CC4=CC=C(C=C4)O)NC(=O)[C@@H](CC5=CC=CC=C5)N)O [CAP-232] + NC(=O)Nc1cc(-c2cccc(F)c2)sc1C(=O)N[C@H]1CCCNC1 [AZD7762] (partner 0.2 µM)
Method in brief: as §1

[7] = compound: C[C@H]([C@@H](C(=O)N)NC(=O)[C@@H]1CSSC[C@@H](C(=O)N[C@H](C(=O)N[C@@H](C(=O)N[C@H](C(=O)N1)CCCCN)CC2=CNC3=CC=CC=C32)CC4=CC=C(C=C4)O)NC(=O)[C@@H](CC5=CC=CC=C5)N)O [CAP-232] + Nc1nc2[nH]cc(CCc3ccc(C(=O)N[C@@H](CCC(=O)O)C(=O)O)cc3)c2c(=O)[nH]1 [Pemetrexed] (partner 0.2 µM)
Method in brief: as §1

[8] = compound: C[C@H]([C@@H](C(=O)N)NC(=O)[C@@H]1CSSC[C@@H](C(=O)N[C@H](C(=O)N[C@@H](C(=O)N[C@H](C(=O)N1)CCCCN)CC2=CNC3=CC=CC=C32)CC4=CC=C(C=C4)O)NC(=O)[C@@H](CC5=CC=CC=C5)N)O [CAP-232] + Nc1ncn([C@H]2C[C@H](O)[C@@H](CO)O2)c(=O)n1 [Decitabine] (partner 2 µM)
Method in brief: as §1

[9] = compound: C[C@H]([C@@H](C(=O)N)NC(=O)[C@@H]1CSSC[C@@H](C(=O)N[C@H](C(=O)N[C@@H](C(=O)N[C@H](C(=O)N1)CCCCN)CC2=CNC3=CC=CC=C32)CC4=CC=C(C=C4)O)NC(=O)[C@@H](CC5=CC=CC=C5)N)O [CAP-232] + O=C(CCCCCCC(=O)Nc1ccccc1)NO [Vorinostat] (partner 1 µM)
Method in brief: as §1

[10] = compound: C[C@H]([C@@H](C(=O)N)NC(=O)[C@@H]1CSSC[C@@H](C(=O)N[C@H](C(=O)N[C@@H](C(=O)N[C@H](C(=O)N1)CCCCN)CC2=CNC3=CC=CC=C32)CC4=CC=C(C=C4)O)NC(=O)[C@@H](CC5=CC=CC=C5)N)O [CAP-232] + O=C(c1cc(Cc2n[nH]c(=O)c3ccccc23)ccc1F)N1CCN(C(=O)C2CC2)CC1 [Olaparib] (partner 8 µM)
Method in brief: as §1

NCI-H1648
relative viability ([1]; 0.4 µM): 0.984
relative viability ([1]; 1.265 µM): 0.761
relative viability ([1]; 4 µM): 0.914
relative viability ([1]; 12.65 µM): 0.885
relative viability ([2]; first compound 0.4 µM): 0.358
relative viability ([2]; first compound 4 µM): 0.314
relative viability ([2]; first compound 12.65 µM): 0.472
relative viability ([3]; first compound 0.4 µM): 0.27
relative viability ([3]; first compound 4 µM): 0.293
relative viability ([3]; first compound 12.65 µM): 0.252
relative viability ([4]; first compound 0.4 µM): 0.238
relative viability ([4]; first compound 1.265 µM): 0.241
relative viability ([4]; first compound 4 µM): 0.265
relative viability ([4]; first compound 12.65 µM): 0.216
relative viability ([5]; first compound 0.4 µM): 0.35
relative viability ([5]; first compound 1.265 µM): 0.594
relative viability ([5]; first compound 4 µM): 0.441
relative viability ([5]; first compound 12.65 µM): 0.4
relative viability ([6]; first compound 0.4 µM): 0.618
relative viability ([6]; first compound 4 µM): 0.77
relative viability ([6]; first compound 12.65 µM): 0.532
relative viability ([7]; first compound 0.4 µM): 1.05
relative viability ([7]; first compound 4 µM): 0.92
relative viability ([7]; first compound 12.65 µM): 0.776
relative viability ([8]; first compound 0.4 µM): 0.524
relative viability ([8]; first compound 4 µM): 0.565
relative viability ([8]; first compound 12.65 µM): 0.466
relative viability ([9]; first compound 0.4 µM): 0.292
relative viability ([9]; first compound 4 µM): 0.453
relative viability ([9]; first compound 12.65 µM): 0.411
relative viability ([10]; first compound 0.4 µM): 0.698
relative viability ([10]; first compound 4 µM): 0.664
relative viability ([10]; first compound 12.65 µM): 0.644
